Each block holds one compound with its values, some of them ahead of it.
What was measured:
TNFα trimer = TNFα trimer (Homo sapiens, UniProt P01375); assay: TNFα oligomerization state by SEC; format: biochemical; settings: 1 μM TNFα, additive without peptide (0.05% TWEEN20, one hour RT; 10 μM SPD304)
TNFα-TNFR1 interaction = TNFα-TNFR1 interaction (Homo sapiens, UniProt P01375); assay: TNFα-TNFR1 competition ELISA; format: binding; settings: 100 μM SPD304 alone
[1] = tested on: TNFα-mediated death of WEHI-13VAR cells; assay: WEHI-13VAR cell viability assay; format: cell-based, mouse; settings: pre-incubation of TNFα with 20 μM SPD304 alone; final 20 nM after dilution
[2] = optical sensor assay; cited from earlier work
[3] = target: bicyclic 19-mer peptide (synthetic construct); settings: cited from earlier work

Chain of TNFα (P01375 77-233): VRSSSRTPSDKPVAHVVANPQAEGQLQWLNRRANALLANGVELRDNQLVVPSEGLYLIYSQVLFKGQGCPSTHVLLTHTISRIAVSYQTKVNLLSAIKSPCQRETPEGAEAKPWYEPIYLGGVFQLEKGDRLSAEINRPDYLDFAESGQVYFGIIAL
Chain of TNFα trimer (P01375 77-233 limits assumed): as the sequence (P01375 77-233) above
Chain of TNFα-TNFR1 interaction (P01375 77-233 limits assumed): as the sequence (P01375 77-233) above

effect of additive alone on TNFα trimer by SEC (TNFα trimer): did not change
Compound: TWEEN20

Compound: Cc1cc2occ(CN(C)CCN(C)Cc3cn(-c4cccc(C(F)(F)F)c4)c4ccccc34)c(=O)c2cc1C [SPD304]
TNFα binding to TNFR1 blocked (TNFα-TNFR1 interaction): ~ 30% | block of TNFα-mediated cell death by additive alone [1]: did not substantially block | critical aggregation concentration (CAC) [2]: 10 µM

Compound: TNFα (from UniProt P01375)
Kd [3]: 5 nM
